The values below come from PMC4315625 (Cancer discovery, 2014).

Data set [1] deals with approximately 280 other kinases. Description: Commercial biochemical kinome panel.
In data set [2] the target is IGF-1R (Homo sapiens, UniProt P08069). As to the kind of experiment: Cellular IGF-1R phosphorylation assay. It is filed as cell-based. As to conditions: cellular phosphorylation assay as surrogate.
A short description of data set [3]: Blood glucose and insulin levels after single oral dose in rats. It is filed as in vivo, rat. As to conditions: single oral dose of 200 mg/kg, over a 24 hour period.
The target in data set [4] is HER2 (ErbB2) (Homo sapiens, UniProt P04626). Description: Cellular HER2 phosphorylation. Format: cell-based. As to conditions: three cellular approaches.
Chain of HER2 (ErbB2) (P04626 676-1255 limits assumed): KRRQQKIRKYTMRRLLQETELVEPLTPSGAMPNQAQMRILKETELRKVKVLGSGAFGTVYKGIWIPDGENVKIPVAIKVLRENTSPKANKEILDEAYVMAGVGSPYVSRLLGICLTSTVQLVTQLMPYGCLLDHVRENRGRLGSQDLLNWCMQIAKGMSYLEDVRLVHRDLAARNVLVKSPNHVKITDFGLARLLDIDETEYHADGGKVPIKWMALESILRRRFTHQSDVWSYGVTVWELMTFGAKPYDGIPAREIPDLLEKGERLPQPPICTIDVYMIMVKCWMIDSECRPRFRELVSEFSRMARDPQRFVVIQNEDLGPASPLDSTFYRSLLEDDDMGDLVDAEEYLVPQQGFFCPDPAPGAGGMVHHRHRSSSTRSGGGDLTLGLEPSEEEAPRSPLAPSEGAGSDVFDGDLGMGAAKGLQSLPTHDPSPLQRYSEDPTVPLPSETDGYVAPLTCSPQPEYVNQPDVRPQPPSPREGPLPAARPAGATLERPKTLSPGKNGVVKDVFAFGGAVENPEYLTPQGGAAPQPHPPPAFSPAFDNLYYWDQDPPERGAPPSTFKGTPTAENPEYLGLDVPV
Data set [5] concerns Parental EGFRm+ lines (PC-9, H3255, HCC827, HCC4006, 11-18). Description: Growth inhibition assay. It is filed as cell-based. Particulars: independent laboratory.
Data set [6] relates to NCI-H820 cells. As to the kind of experiment: Large cell panel proliferation profiling study. Format: cell-based. As to conditions: NCI-H820, read-out: IC50, proliferation.
In data set [7] the test system is EBC-1 cells. As to the kind of experiment: Large cell panel proliferation profiling study. It is filed as cell-based. Particulars: Homo sapiens, EBC-1, read-out: IC50, proliferation.
For data set [8], the system named is EGFR L861Q, G719S and exon 19 insertion (I744-K745insKIPVAI). As to the kind of experiment: Phospho-EGFR immunoblot in transfected 293 cells, rare sensitive mutants. Format: cell-based. Particulars: 6 hours. For orientation: Immunoblotting shows a protein as a band on a membrane.
Data set [9] deals with H1781 cells (VC insertion at G776 in exon 20 of HER2). As to the kind of experiment: Growth inhibition of HER2 mutant H1781 cells. As to conditions: NCI-H1781, read-out: IC50, growth. It is filed as cell-based.
Data set [10] can be described thus: Pharmacokinetics after oral dosing in the mouse. Format: in vivo.
The subject of data set [11] is phospho-EGFR (Tyr1173) in H1975 xenografts. As to the kind of experiment: Pharmacodynamics in H1975 xenografts. It is filed as in vivo, mouse. As to conditions: single dose 5 mg/kg.
Data set [12] in a line: Preliminary clinical pharmacokinetics, AURA Phase 1. Format: in vivo, human.
Data set [13] relates to advanced EGFRm+ T790M NSCLC. Description: Radiographic tumor response. Particulars: for tumor shrinkage: 20 mg once daily. It is filed as in vivo, human.
Data set [14] is described as follows: Adverse events and blood glucose in two patients, AURA Phase 1. Format: in vivo, human.
A short description of data set [15]: Body weight of xenograft-bearing mice on daily dosing. It is filed as in vivo, mouse. Particulars: daily dosing for 200 days, PC-9 and H1975 studies.
The test system of data set [16] is lines harboring EGFR T790M (H1975, HCC827/ER1, PC-9/BRc1 and H3255/XLR). Particulars: independent laboratory.
The subject of data set [17] is lines harboring non-T790M resistance: 11-18/ER (NRAS), HCC827/ER2 (MET amplification), HCC4006/ER (EMT). As to conditions: independent laboratory.
Data set [18] has as its system A431 xenografts. Particulars: 5 mg/kg/day.
The subject of data set [19] is phospho-EGFR and downstream markers. Particulars: 5mg/kg dosing.
Data set [20] relates to PC-9 (ex19del) tumor xenograft. As to the kind of experiment: PC-9.
Data set [21] concerns EGFR^L858R + T790M driven lung adenocarcinomas (C/L+T mice). As to the kind of experiment: C/L+T transgenic lung adenocarcinoma model. As to conditions: AZD9291 5 mg/kg/day, afatinib 7.5 mg/kg/day, AZ5104 5 mg/kg/day; one to two weeks.
The test system of data set [22] is EGFR^L858R driven lung adenocarcinomas (C/L858R mice). As to the kind of experiment: C/L858R transgenic lung adenocarcinoma model.
Data set [23] relates to mutant and wild-type EGFR cell lines. Description: Sytox phenotypic assay across cell lines. Format: cell-based.
Data set [24] relates to EGFR in mutant and wild-type cell lines. As to the kind of experiment: In vitro EGFR phosphorylation assay, mutant and wild-type cell lines overall. Particulars: compared to AZD9291.
Data set [25] has as its target wild-type EGFR (A431, LOVO, NCI-H2073) (Homo sapiens, UniProt P00533). Description: In vitro EGFR phosphorylation assay. Format: cell-based. Particulars: read-out: potency against wild-type EGFR.
Data set [26] has as its target EGFR variant III (EGFRvIII) (Homo sapiens, UniProt P00533, DELINS30-297G). As to the kind of experiment: Phospho-EGFR immunoblot in transfected 293 cells, EGFRvIII. It is filed as cell-based. Particulars: 6 hours.
In data set [27] the test system is wild-type EGFR cell lines (Calu3, H2073). Description: Sytox Green live/dead cell phenotype assay, wild-type EGFR lines. Format: cell-based. As to conditions: compared to AZD9291.
The subject of data set [28] is T790M EGFR cell lines (H1975, PC-9VanR). As to conditions: compared to AZD9291.
The subject of data set [29] is EGFR^L858R driven lung adenocarcinomas (C/L858R mice). Particulars: cited from earlier work.
In data set [30] the test system is EGFR^L858R + T790M driven lung adenocarcinomas (C/L+T mice). Particulars: cited from earlier work.
Setting [31] is: patients, AZD9291 mesylate 20 mg oral, preliminary.

Where two headings read alike, the source gives them in different places.

For orientation: half-life means how long it takes for the measured level to halve. Low readings indicate rapid decline, high ones slow decline.

Chain of IGF-1R (P08069 31-1367, species assumed): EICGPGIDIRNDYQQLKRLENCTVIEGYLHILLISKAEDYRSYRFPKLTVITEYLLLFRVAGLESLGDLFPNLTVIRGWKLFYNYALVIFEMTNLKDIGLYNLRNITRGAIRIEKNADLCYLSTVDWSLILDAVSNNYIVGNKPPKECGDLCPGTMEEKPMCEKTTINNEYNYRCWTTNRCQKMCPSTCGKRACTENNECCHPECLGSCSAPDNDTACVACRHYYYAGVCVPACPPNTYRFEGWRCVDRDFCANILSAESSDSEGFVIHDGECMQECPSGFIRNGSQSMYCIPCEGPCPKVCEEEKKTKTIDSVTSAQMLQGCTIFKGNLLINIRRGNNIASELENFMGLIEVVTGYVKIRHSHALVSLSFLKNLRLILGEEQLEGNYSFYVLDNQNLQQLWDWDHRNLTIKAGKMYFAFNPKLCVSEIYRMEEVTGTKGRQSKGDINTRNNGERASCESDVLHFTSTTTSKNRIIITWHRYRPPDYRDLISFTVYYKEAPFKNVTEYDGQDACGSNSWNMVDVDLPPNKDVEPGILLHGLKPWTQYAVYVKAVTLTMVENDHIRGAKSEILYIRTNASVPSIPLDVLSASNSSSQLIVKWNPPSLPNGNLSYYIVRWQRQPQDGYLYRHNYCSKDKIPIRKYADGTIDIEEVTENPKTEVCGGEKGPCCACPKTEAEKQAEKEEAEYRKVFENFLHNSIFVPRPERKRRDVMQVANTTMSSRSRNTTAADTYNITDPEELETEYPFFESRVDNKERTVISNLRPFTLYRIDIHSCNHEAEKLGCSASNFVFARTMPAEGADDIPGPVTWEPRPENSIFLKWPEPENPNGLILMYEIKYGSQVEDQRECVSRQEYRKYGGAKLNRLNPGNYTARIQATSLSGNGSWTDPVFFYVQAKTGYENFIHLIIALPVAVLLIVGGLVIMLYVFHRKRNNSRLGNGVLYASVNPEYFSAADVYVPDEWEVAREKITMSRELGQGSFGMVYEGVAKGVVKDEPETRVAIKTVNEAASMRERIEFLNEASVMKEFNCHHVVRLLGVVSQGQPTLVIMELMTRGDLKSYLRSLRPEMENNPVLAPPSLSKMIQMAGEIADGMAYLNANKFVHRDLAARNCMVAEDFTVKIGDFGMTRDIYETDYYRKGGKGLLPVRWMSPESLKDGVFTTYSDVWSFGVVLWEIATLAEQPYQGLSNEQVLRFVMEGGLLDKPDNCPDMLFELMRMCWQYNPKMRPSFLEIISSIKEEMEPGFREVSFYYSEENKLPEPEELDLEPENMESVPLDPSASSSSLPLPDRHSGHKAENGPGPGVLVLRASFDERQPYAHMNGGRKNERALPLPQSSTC

As for `C=CC(=O)Nc1cc(Nc2nccc(-c3cn(C)c4ccccc34)n2)c(OC)cc1N(C)CCN(C)C` [AZD9291], the “off-target kinase activity / secondary target profile” value in [1] (1 μM) was “minimal off-target kinase activity”. The “inhibition at 1 μM” value in data set [1] (ErbB2/4, ACK1, ALK, BLK, BRK, MLK1 and MNK2) is “greater than 60%”. For the same molecule, the “activity towards IGF-1R” value in [2] is reported as “did not exhibit significant activity”. Moreover, in data set [3], the “change in blood glucose or insulin levels” value was “did not cause a significant change”. Also, the “inhibition of phosphorylation of HER2” value in data set [4] was “moderate potency levels”. Also, in [5], the “sensitivity of parental EGFRm+ lines” value is “sensitive”. For the same molecule, the IC50 in data set [6] is about 1000 nM; in data set [7], about 1000 nM; in data set [9], 80 nM. For the same molecule, the “effect on phospho-EGFR of L861Q, G719S and exon 19 insertion” value in [8] was “somewhat less potent compared with the AZ5104 metabolite”. For the same molecule, the bioavailability entry in data set [10] is recorded as “good bioavailability”. Also, in [10], the clearance result was “moderate clearance”. Also, the tissue distribution entry in data set [10] is recorded as “widely distributed in tissues”. Besides, the half-life in data set [10] (plasma, po) is about 3 h; in [12] (human, plasma, po, 20 mg) it was at least 50 h. Further, in [11] (after 6 hours), the “phospho-EGFR and downstream signalling” value is reported as “strongly inhibited”. In addition, the phospho-EGFR staining entry in data set [11] (after the 30 hour time point) is “remained significantly diminished”. Moreover, the duration of response entry in [13] (both patients, 20 mg/day) is reported as “approximately 9 months”. Further, in data set [13] (both patients, 20 mg/day, RECIST 1.1), the progression-free time result is recorded as “approximately 11 months”. Besides, the tumor shrinkage turned out to be 39.7% in data set [13] (first patient, scan 1); 48.3% in data set [13] (first patient, scan 2); 48.3% in data set [13] (first patient, scan 3); 48.3% in data set [13] (first patient, scan 4); 51.7% in [13] (first patient, scan 5); 38% in data set [13] (second patient, scan 1). Besides, the tumor shrinkage amounted to 39.3% in data set [13] (second patient, scan 2); 56.7% in data set [13] (second patient, scan 3); 62% in data set [13] (second patient, scan 4); 59.3% in data set [13] (second patient, scan 5). Besides, in data set [14] (20 mg once daily), the diarrhea events result is “one reported CTCAE Grade 1 diarrhea”. Besides, the rash events result in data set [14] (20 mg once daily) is recorded as “no rash events”. For the same molecule, in [14] (during the study), the blood glucose levels entry is given as “No significant aberration”. For the same molecule, the body weight loss result in data set [15] is recorded as “less than 5 % of starting body weight”. For the same molecule, in data set [16], the “activity against lines harboring EGFR T790M” value was “low nanomolar activity”. Besides, in data set [17], the “activity against lines harboring non-T790M resistance” value is on record as “not effective”. For the same molecule, in data set [18], the tumor growth inhibition result was “moderate tumor growth inhibition”. For the same molecule, the “target inhibition in treated tumors” value in [19] is given as “observed target inhibition”. Also, in data set [20] (following 40 daily doses with 5 mg/kg, sustained out to 200 days), the “tumors with no visible tumor” value was 8 of 8. For the same molecule, the “lowest dose with tumor shrinkage observed” value in data set [20] (once daily, after 14 days) turned out to be 2.5 mg/kg/day. The “tumor response” value in data set [21] is recorded as “significant tumor shrinkage”. The “reduction in tumor volume by MRI” value in data set [22] (AZD9291 5 mg/kg/day, afatinib 7.5 mg/kg/day, 5 of 5 mice) is about 80%.

As to `C=CC(=O)Nc1cc(Nc2nccc(-c3cn(C)c4ccccc34)n2)c(OC)cc1N(C)CCNC` [AZ7550], the “potency across cell lines in phenotypic assay” value in [23] is listed as “broadly similar”. In data set [10] (circulating metabolite in plasma), the “total exposure levels (AUC) compared to the parent compound” value is reported as “approximately 68%”. Further, the half-life entry in [12] (setting [31]) is reported as “at least 50 hours”. In addition, the “potency and profile against mutant and wild-type cell lines” value in [24] was “very similar potency and profile to AZD9291”.

Regarding `C=CC(=O)Nc1cc(Nc2nccc(-c3c[nH]c4ccccc34)n2)c(OC)cc1N(C)CCN(C)C` [AZ5104], the “activity towards IGF-1R” value in [2] was “did not exhibit significant activity”. The “inhibition of phosphorylation of HER2” value in data set [4] is listed as “more potency than AZD9291”. In data set [25], the IC50 was determined as 33 nM. Besides, the “potency across cell lines in phenotypic assay” value in data set [23] (compared to AZD9291) is recorded as “much greater potency across cell lines”. In [26], the “potency against EGFRvIII mutant” value is reported as “higher level of activity”. In addition, the half-life entry in [12] (setting [31]) is listed as “at least 50 hours”. The “tumor response” value in data set [21] and in data set [22] (AZ5104 5 mg/kg/day) was “effective in shrinking tumors” in each case.

With `CNC(=O)CN1CCC(Oc2cc3c(Nc4cccc(Cl)c4F)ncnc3cc2OC)CC1` [AZD8931], the “sensitivity of parental EGFRm+ lines” value in data set [5] is listed as “sensitive”.

For `COc1cc2ncnc(Nc3ccc(F)c(Cl)c3)c2cc1NC(=O)/C=C/CN1CCCCC1` [dacomitinib], in data set [27], the “potency towards wild-type EGFR, Sytox” value is “much greater potency towards wild-type EGFR”. Also, in data set [28], the “activity against T790M lines, Sytox” value is recorded as “much less activity against T790M lines”.

With `COc1cc2ncnc(Nc3ccc(F)c(Cl)c3)c2cc1OCCCN1CCOCC1` [gefitinib, reference compound], the “time until tumors began to re-grow” value in [20] (6.25 mg/kg/day) was “approximately 90 days”. The “tumor regression” value in data set [20] (6.25 mg/kg/day, compared with AZD9291 5 mg/kg) is given as “less tumor regression”.

Regarding `C#Cc1cccc(Nc2ncnc3cc(OCCOC)c(OCCOC)cc23)c1` [erlotinib], the “sensitivity of parental EGFRm+ lines” value in [5] is “sensitive”. Besides, the results for the tumor sensitivity entry in data set [29] and in [30] were “sensitive” and “resistant”, respectively.
